Test results: patent US20200390767A1, “Formulations of 4-(7-Hydroxy-2-isopropyl-4-oxo-4H-quinazolin-3-yl)-benzonitrile” (NOVARTIS AG, priority 2019, published 2020)

Key:
[1] = First in human study, plasma pharmacokinetics; assay type: in vivo
Text: Accumulation of compound I at steady-state was minor (˜1.7-fold) following administration of 0.15%, 1.5% or 2.5% suspension 4 times daily and also minor (˜1.3-fold) following 2.5% 8 times daily for 7 days.

[2] = tested on: postoperative ocular pain in patients undergoing photorefractive keratectomy (PRK) surgery; assay: PRK clinical study, oral rescue medication use; assay type: in vivo, human
Description: Rescue medication consisted of oral analgesic (acetaminophen 300 mg+codeine 30 mg) as needed up to a total of 10 tabs/day or 1-2 tabs every 4 hours.
After 36 hours post-operation, the same number of patients took ORM in compound I vs. Vehicle (Table 24).

[3] = tested on: postoperative ocular pain in patients undergoing photorefractive keratectomy (PRK) surgery; assay: PRK clinical study, Ocular Pain Assessment Survey (OPAS); assay type: in vivo, human
Text: The Ocular Pain Assessment Survey (OPAS) is a quantitative, multidimensional questionnaire, specifically designed for assessment of corneal and ocular surface pain and Quality of Life (QoL) changes. The OPAS assesses pain intensity, frequency of eye and non-eye pain, QoL changes, aggravating factors, associated factors, and symptomatic relief quantitative, allowing for monitoring of treatment responses. See Qazi et al., Ophthalmology July 123(7):1458-1468 (2016).
The OPAS is a validated instrument for quantifying and monitoring corneal and ocular surface pain and quality of life, developed in response to an identified need from a National Eye Institute Workshop in 2010. See Qazi et al., Ophthalmology July 123(7):1458-1468 (2016). The rating scale of the overall pain severity in the OPAS from Qazi et al. rated from 0 (no pain) to 10 (severe pain) or for frequency of symptoms from 0% (never) to 100% (all the time), as per the survey. The patients were asked to fill out the OPAS survey/questionnaire at Day 2, Day 4 (at the end of treatment period with study drug) and Day 8. Statistical analysis of OPAS results was not performed.

[4] = tested on: PRK surgery patients; assay: PRK clinical study, adverse events; assay type: in vivo, human
Text: Safety assessments consisted of collecting all AEs, SAES, with their severity and relationship to study drug. Only signs and symptoms greater than the listed ranges of either severity or duration were reported as AEs.
(§1) Adverse events and serious adverse events included an assessment of both systemic and ocular assessments. Systemic safety assessments included regular assessments of height and weight, vital signs, reporting medication errors including misuse/abuse, pregnancy reporting and early phase safety monitoring. The misuse/abuse, pregnancy reporting and early phase safety monitoring were not assessed for the study. Ocular safety assessments included the following: • Best-corrected visual acuity (BCVA) and uncorrected visual acuity (UCVA): Was measured at each visit using an ETDRS visual acuity chart at 4 meters (13 feet) or 1 meter (for patients that cannot read the 4 meter chart). The BCVA scoring was done based on the number of correctly read letters plus 30. If visual acuity was so poor that the patient could not read any of the largest letters at 1 meter, count fingers and hand movement vision and light perception was tested. • Intraocular Pressure (TOP): IOP measurements were conducted with applanation tonometry or Tonopen. • Dilated fundus exam: The dilated fundus examination included ophthalmoscopic assessments of the vitreous, retina/macula/choroid, and optic nerve. Evaluations for retinal tear/detachment, retinal hemorrhage, vitreous hemorrhage density, vitreous haze grading and abnormal findings were done and scored according to grading criteria. • Ocular hyperemia: Conjunctival redness of the bulbar conjunctiva in each eye at the slit lamp according to the McMonnies redness scale was graded. […] By adjusting the calibrated slit beam width and height, the maximum horizontal (wound width) and vertical dimensions (wound height) of the surgical epithelial wound was estimated. The evaluation was performed until wound closure and report of wound size as 0 horizontal and 0 vertical dimensions. • Slit-lamp biomicroscopy: Ocular signs (eyelids/conjunctiva, cornea, lens, and iris/anterior chamber) was assessed in both eyes by slit lamp biomicroscopy according to the grading criteria. • Blink rate: A blink was defined as a bilateral paroxysmal closure of the eyelids (duration <1 second) in the absence of a provoking external stimulus. Each blink assessment lasted for 2 min (or as close to 2 minutes as possible with minimum time 1 minute) and the obtained blink rate was averaged to calculate blink rate in blinks/min. • Tear production (Schirmer's test without anesthesia): The test was performed without anesthetic in both eyes simultaneously. Tear secretion was measured in millimeters of the length of strip wetted by tears. […] The strip was wetted with 1 drop of sterile saline and flicked to remove excess saline. The patient blinked several times to ensure dispersion of the dye throughout the tear film prior to grading on a scale of 0-3 (0=Normal, No staining; 1=Mild, Superficial stippling micropunctate staining; 2=Moderate, Macropunctate staining with some coalescent areas and 3=Severe, Numerous coalescent macropunctate areas and/or patches) for each of 5 zones (central plus 4 quadrants).
A total of 18 AEs were reported in 10 patients (25% of the 40 enrolled patients) of which twelve occurred after treatment with compound I, five after treatment with Vehicle and one occurred in one patient prior to dosing of the study drug. All AEs were either mild or moderate in severity.

[5] = tested on: PRK surgery patients; assay: PRK clinical study, ocular safety assessments and vital signs; assay type: in vivo, human
Text: as §1

[6] = across the scheduled time points

CC(C)c1nc2cc(O)ccc2c(=O)n1-c1ccc(C#N)cc1 [Compound I, 4-(7-hydroxy-2-isopropyl-4-oxo-4H-quinazolin-3-yl)-benzonitrile]
Accumulation at steady-state ([1]; 0.15%, 1.5% or 2.5% suspension 4 times daily): ~1.7 fold | Accumulation at steady-state ([1]; 2.5%, 8 times daily for 7 days): ~1.3 fold | increase in systemic exposure with dose ([1]; increase in dose from 0.15% to 2.5%): less than dose-proportional increase | % Change (Compound I-Vehicle)/Vehicle, mg/kg of body weight ([2]; 0-6 hours post-operatively): −25% | % Change (Compound I-Vehicle)/Vehicle, number of pills ([2]; 0-6 hours post-operatively): −25% | amount of oral rescue medication, Mean (SD) ([2]; 0-6 hours post-operatively): 3.32 (4.684) mg/kg of body weight | amount of oral rescue medication, Mean (SD) ([2]; 0-6 hours post-operatively, listed as compound I): 0.75 (1.032) Number of pills | % Change (Compound I-Vehicle)/Vehicle, mg/kg of body weight ([2]; 0-12 hours post-operatively): −17% | % Change (Compound I-Vehicle)/Vehicle, number of pills ([2]; 0-12 hours post-operatively): −15% | amount of oral rescue medication, Mean (SD) ([2]; 0-12 hours post-operatively): 6.10 (8.062) mg/kg of body weight | amount of oral rescue medication, Mean (SD) ([2]; 0-12 hours post-operatively, listed as compound I): 1.40 (1.780) Number of pills | % Change (Compound I-Vehicle)/Vehicle, mg/kg of body weight ([2]; 0-24 hours post-operatively): −18% | % Change (Compound I-Vehicle)/Vehicle, number of pills ([2]; 0-24 hours post-operatively): −16% | amount of oral rescue medication, Mean (SD) ([2]; 0-24 hours post-operatively): 10.17 (12.335) mg/kg of body weight | amount of oral rescue medication, Mean (SD) ([2]; 0-24 hours post-operatively, listed as compound I): 2.35 (2.751) Number of pills | % Change (Compound I-Vehicle)/Vehicle, mg/kg of body weight ([2]; 0-48 hours post-operatively): −14% | % Change (Compound I-Vehicle)/Vehicle, number of pills ([2]; 0-48 hours post-operatively): −13% | amount of oral rescue medication, Mean (SD) ([2]; 0-48 hours post-operatively): 17.59 (19.850) mg/kg of body weight | amount of oral rescue medication, Mean (SD) ([2]; 0-48 hours post-operatively, listed as compound I): 4.05 (4.466) Number of pills | % Change (Compound I-Vehicle)/Vehicle, mg/kg of body weight ([2]; 0-72 hours post-operatively): −15% | % Change (Compound I-Vehicle)/Vehicle, number of pills ([2]; 0-72 hours post-operatively): −14% | amount of oral rescue medication, Mean (SD) ([2]; 0-72 hours post-operatively): 18.70 (21.509) mg/kg of body weight | amount of oral rescue medication, Mean (SD) ([2]; 0-72 hours post-operatively, listed as compound I): 4.33 (4.896) Number of pills | OPAS eye pain intensity during the previous 24 hours (questions 4, 5, 6) versus Vehicle ([3]; Day 2): all 3 answers numerically favored compound I | OPAS how often eye pain with redness, burning, sensitivity to light, tearing (questions 22-25) versus Vehicle ([3]; human, in vivo): all answers favored compound I | deaths, SAEs, discontinuations due to AEs ([4]; 40 enrolled patients): no deaths or SAEs | eyes (treatment periods) with AEs of moderate severity ([4]; five AEs in four patients): four | patients who experienced an AE only during this treatment ([4]; human, in vivo): Five | relation of ocular AEs to study drug ([4]; human, in vivo): None of the AEs were suspected to be related | patients who developed AEs after treatment ([4]; of 40 patients): Eight | number of AEs after treatment ([4]; of a total of 18 AEs in 10 patients): twelve | eyes with ocular AEs (mild severity) ([4]; six ocular AEs in four patients): three | eyes (treatment periods) with non-ocular AEs ([4]; twelve non-ocular AEs in seven patients): six | Ocular hyperemia, grade 4 (McMonnies scale), versus Vehicle ([5]; Day 2 postoperatively (24 hours after PRK surgery), all quadrants): less grade 4 hyperemia | Ocular hyperemia, grade 3 (McMonnies scale), versus Vehicle ([5]; Day 3 (48 hours post-operative)): less grade 3 hyperemia | Dilated fundus exam [5, 6]: No abnormal findings | Slit-lamp biomicroscopy: aqueous flare, inflammatory cell grade, iris/anterior chamber, lens [5, 6]: No abnormalities were observed | Corneal staining versus Vehicle ([5]; baseline, Day 8, EOS visit): No clinical differences were observed | vital sign parameters ([5]; during the study): within the normal range | BCVA and UCVA versus Vehicle ([5]; throughout the study): did not result in any trend or obvious difference | Blink rate versus Vehicle ([5]; throughout the study): no trend across the scheduled time points or obvious differences | Intraocular pressure versus Vehicle ([5]; throughout the study): No trend across the scheduled time points or obvious differences
